# From a melting point compilation (Tetko et al.; mined from patent text by program, amines drawn as free bases though some values may be those of a salt)
row,SMILES,melting point [°C]
1,O=C(N[C@H]1CCN(C(=O)c2cc(C(F)(F)F)cc(C(F)(F)F)c2)[C@H](Cc2ccc(Cl)cc2)C1)c1ccnc2ccccc12,204 to 207
2,c1ccc(N(c2ccc3c(c2)Oc2ccc(N(c4ccccc4)c4cccc5ccccc45)cc2O3)c2cccc3ccccc23)cc1,315
3,CNc1ccc(Oc2nc(OC)cc(OC)n2)c(C(=O)O)n1,172 to 174
4,CCN(CC)CCNC(=O)c1cc(Cl)c(N)cc1OCCOC,108 to 110
5,Cc1ccc(Cn2ncnc2C(NS(=O)(=O)c2ccc(Cl)s2)C(C)C)cc1 (centres undefined),124 to 125
6,COc1cccc(OC(=O)c2ncn3c2[C@@H]2CCCN2C(=O)c2c(Cl)cccc2-3)c1,184 to 185
7,COC(=O)CCc1ccc(C(=O)O)cc1[N+](=O)[O-],120 to 122
8,O=C(CCn1cnc2c(=O)[nH]cnc21)NCCO,225 to 229
9,COc1ccc(C(CC(=O)Nc2cc(C(N)=O)ccc2C(C)(C)C)CC(C)C)c(OC)c1 (centres undefined),194 to 196
10,NC(=O)NCC1CCCc2cc(NS(=O)(=O)c3cccc(F)c3)ccc21 (centres undefined),162 to 163
11,O=C1[C@H]2CCC[C@H]2N(C(=O)CCn2ccnc2)c2ccccc2N1Cc1ccccc1 (relative stereo),150 to 152
12,c1ccc2c(c1)CCc1cc(C3CO3)ccc1-2 (centres undefined),65 to 66
13,COc1ccc2cc(S(=O)(=O)Cl)cc(OC)c2c1,134
14,CCCNC(=O)C(O)C1(O)CCC2C3CCC4=CC(=O)C=CC4(C)C3C(O)CC21C (centres undefined),251 to 253
15,Nc1cnc2c(c1)CCCC2,97 to 98
16,COc1cc2c(c3c1OC(C)(C)C3)C(c1cccc(C(=O)NCC(N)=O)c1)=NC(C)(C)C2,141 to 142
17,CC(C)(C)c1ccc(OP2N(c3ccccc3)P(Oc3ccc(C(C)(C)C)cc3C(C)(C)C)N2c2ccccc2)c(C(C)(C)C)c1 (centres undefined),162 to 166
18,CCC(O)c1oc(C)cc(=O)c1O (centres undefined),134 to 136
19,COc1ccnc(CCc2nc3cc(-c4ccc(S(=O)(=O)NCCO)cc4)cnc3[nH]2)c1,218 to 220
20,CC(C)(C)C(=O)C(O)NC(=O)c1ccc(Cl)cc1 (centres undefined),130
21,O=C1Cc2cc3c(CCC4CCN(Cc5ccccc5)CC4)noc3cc2N1,118 to 119
22,O=C(O)c1csc(Oc2cccc(Cl)c2)n1,135 to 137
23,CC(C)(C)S(=O)(=O)N1C[C@H](O)C[C@@H]1c1cc(F)cc(C#N)c1,93 to 96
24,NS(=O)(=O)c1ccc(N2CCN(CCC3=CCCc4ccccc43)CC2)cc1,222
25,CC(C)NC(=O)c1cc2ncn(C)c2c(Cl)c1NC(=O)c1cc(C(F)(F)F)nn1-c1ncccc1Cl,150 to 155
26,CC(CCc1ccc(C(C)C(=O)O)cc1)C(=O)O (centres undefined),107 to 109

row,SMILES,melting point [°C]
1,CCC(=O)c1ccc(NC(C)=O)cc1,169 to 170
2,O=C(O)c1ccc2c(-c3ccccc3)c([N+](=O)[O-])oc2c1,244 to 247
3,CCCCCCCSc1nc(C)c(O)c(C)n1,110 to 111
4,CC(=O)c1ccc(O)c(CS(C)(=O)=O)c1,206 to 208
5,Nc1ccc(Sc2ccccc2)cc1Br,61 to 63
6,OCCCNc1ccc2ncnn2n1,193 to 194
7,Cc1ccc2c(=O)nc(-c3cccc(CCC(=O)O)n3)sc2c1,222
8,C#Cc1cn(C2OC(CO)C(O)C2=C)c(=O)[nH]c1=O (centres undefined),172 to 174
9,Fc1ccc2c(c1)Cc1sc(NCCCN3CCOCC3)nc1-2,113 to 115
10,CC(=O)c1ccc(Cl)c(C)c1F,57
11,Cc1cnc2ccc3c(c2c1)OC(CN1CC=C(c2c[nH]c4ccccc24)CC1)CO3 (centres undefined),211 to 213
12,CN1CC(CCCl)Oc2cc3ccccc3cc2C1=O (centres undefined),101 to 102
13,CC1(C)C=Cc2c(cc(O)c3c(=O)c4cc5ccccc5cc4[nH]c23)O1,225
14,CCOC(=O)c1sc2[nH]c(=O)ccc2c1Br,262 to 268
15,O=C1Nc2cc(C(F)(F)F)ccc2C1=O,196 to 198
16,COc1ccc(-c2ccc(Cl)nn2)c(OCC(O)CNC(C)C)c1 (centres undefined),128 to 129
17,CC(C)(SCC(=O)O)C(NS(=O)(=O)c1ccc(Oc2ccc(F)cc2)cc1)C(=O)O (centres undefined),69
18,C#Cc1ccc2c(c1)C1(c3ccccc3-c3ccccc31)c1ccccc1-2,169 to 170
19,N=c1sc2ccccc2n1C(C=O)c1ccc(Cl)cc1 (centres undefined),114
20,CSc1cc(C)nc(SC)c1NC(=O)CCCCCSc1nc2ccccc2s1,123 to 125
21,CCCC(=O)Nc1ccc(CCn2c(=O)n(CCC)c(=O)c3[nH]c(C4CCCC4)nc32)cc1,> 270
22,O=[N+]([O-])C=Cc1cn(-c2ccccc2)c2ccccc12,154 to 155
23,CC1=Nc2ccc(C)cc2C(=O)C1,80 to 82
24,O=[N+]([O-])c1cnn2c(-c3cccnc3)ccnc12,302 to 303
25,CC(C)(C)C(COC(N)=O)(NC(=O)C(=O)c1c[nH]c2ccc(Br)cc12)c1c[nH]c2ccc(Br)cc12 (centres undefined),207
26,CCCCCCCCCCCc1nnc2n1-c1sc(CC)cc1C(c1ccc(O)cc1)OC2 (centres undefined),96 to 98

row,SMILES,melting point [°C]
1,COC(C)OC(=O)C1CC(=O)N(c2ccc(C(C)(C)C)cc2)C1 (centres undefined),60 to 61
2,Cc1cc(C)c2cc(-c3ccccc3)c(N)nc2n1,191 to 195
3,ClC(Cl)(Cl)C1NCCO1 (centres undefined),73
4,CC(O)(CCCCl)c1ccc(-c2cccc(F)c2)cc1 (centres undefined),70 to 72
5,CC(C)Cc1nn(C)c(=O)c2cn(Cc3cccc4ccccc34)nc12,166 to 167
6,CC(=O)Nc1cccc(Oc2c(N)cc(C(=O)O)cc2S(N)(=O)=O)c1,295
7,COc1ccc(CC(=O)NC(NC(=NC#N)c2cccc3ncccc23)C(C)(C)C)cc1OC (centres undefined),203 to 205
8,Cc1oc(=O)c(Nc2ccccc2)nc1Cl,133 to 137
9,Cc1nc(N2CCN(CC3CC3)C2=O)sc1C(=O)NCc1ccc(F)cc1,146 to 147
10,CC1CN(N=Cc2cccnc2)C(=O)NN1 (centres undefined),235 to 237
11,O=C(CCCCC1(C(=O)O)CCC1)CCCCC1(C(=O)O)CCC1,69 to 70
12,O=C(c1ccc(C(F)(F)F)cc1)c1cc(O)c(O)c([N+](=O)[O-])c1,116 to 118
13,CC(C)Cc1ccc(CCc2cc3c(s2)NC(=S)CN=C3c2ccccc2Cl)cc1,180 to 182
14,Nc1ccc(O)c(C(=O)Nc2cccc3[nH]ccc23)c1,> 260
15,Nc1ncccc1OCc1ccccc1C(F)(F)F,105 to 110
16,CSCCCNC(=O)N(O)C[C@@H]1C[C@H]1c1ccccc1 (relative stereo),103 to 104
17,COC(=O)NNC(=S)Cc1ccccc1,93.5 to 94
18,O=c1oc(OCc2ccccc2)nc2ccccc12,152 to 154
19,CC1=C(C(=O)OCc2ccccc2)C2CCC(CCOC(=O)c3ccc(Br)cc3)N2C(=NC(=O)c2ccc(Br)cc2)N1 (centres undefined),175 to 176
20,C=CC1=C(C(=O)O)C(C(F)(F)F)Oc2ccc(Cl)cc21 (centres undefined),143 to 145
21,CCCCCCCCCCCCCCc1ccc(OCC2COC(C)(C)O2)c(CC)c1 (centres undefined),34 to 38
22,NC(=O)c1cc(NCc2ccc(F)cc2)c([N+](=O)[O-])cc1[N+](=O)[O-],178 to 180
23,CC(=O)Nc1ccc2cccc(N3CCN(C)CC3)c2c1,173 to 177
24,COC(=O)c1c(C)nn2c(-c3cccc(C(F)(F)F)c3)ccnc12,177 to 179
25,CC1(C)CC(=O)c2c(C(=O)O)c[nH]c2C1,231 to 232
26,CCc1c(Oc2ncc(C(F)(F)F)cc2Cl)nn(C(=O)NC)c1C,84 to 86

row,SMILES,melting point [°C]
1,Nc1nc(NCCc2ccc(O)cc2)nc2nc(-c3ccco3)nn12,225 to 227
2,COc1ccc(S(=O)(=O)Nc2nc(-c3cccc4ccccc34)cs2)cc1,98 to 100
3,NCCNC(=O)c1nc(Cl)c(N)nc1N,173 to 174
4,CCCCCCCCC(=O)NCc1ccc(C#N)cc1,185 to 187
5,CCCCCCCOc1ccc(-c2ncc(C#N)c(Cl)n2)cc1,133 to 135
6,O=C(O)c1cccc(Oc2ccc(C(F)(F)F)cc2Cl)c1,116 to 119
7,CNC(=O)N1C(=S)C2(CCCCC2)NC12CCCCC2,127 to 129
8,Cn1c(=O)c2nc(-c3ccc(/C=C/C(=O)O)cc3)[nH]c2n(Cc2cccc(C#N)c2)c1=O,> 300
9,CCOC(=O)C(NC(=O)OCc1ccccc1)C(=O)O (centres undefined),65 to 70
10,O=C(c1ccc(F)cc1)c1ccc(Cl)cn1,98 to 100
11,N#CC(=NO)C(=O)c1ccccc1,117 to 119
12,CC(C)Oc1nccc(-c2c(-c3ccc(F)cc3)ncn2C2CCC(=O)CC2)n1,161 to 163
13,Cc1cc(C)c(S(=O)(=O)NC(C)CS)c(C)c1 (centres undefined),74 to 76
14,CSc1ncc(S(=O)(=O)NC(=O)NC(C)C)c(Nc2cccc(C)c2)n1,160
15,O=c1oc2cccc(O)c2c2ccc([N+](=O)[O-])cc12,> 260
16,O=C(O)C=Cc1cccc(-c2cccc([N+](=O)[O-])c2)c1,247 to 248
17,CCOCc1cc2cc(Br)ccc2oc1=Nc1ccc(Cl)cc1,144 to 145
18,CC(=O)OC(C)c1ccc2occ(-c3nnn[nH]3)c(=O)c2c1 (centres undefined),231 to 232
19,COc1cc(-c2cnc3[nH]cc(C(=O)C4(C)CCCC4)c3n2)cc(OC)c1OC,244 to 246
20,CN1CCC(N(C)c2n[nH]c(-c3ccc(Cl)cc3)c2-c2ccncc2)CC1,260 to 261
21,CCOC(=O)c1cc(CC)sc1Nc1ccc(F)cc1N,82 to 84
22,COc1cccc(Nc2n[nH]c(N)c2C#N)c1,177 to 180
23,OCCNc1cc(Nc2ccc(Nc3ccccc3)cc2)ncn1,154 to 155
24,CCC(=O)NCCOc1ccccc1,61.5 to 64
25,CCOc1ccc(C=C(CS)C(=O)NCCC(=O)O)cc1,148
26,CCOC(=O)C(Cc1c(Br)c(OC)c(OC)c(OC)c1OC)(C(=O)OCC)c1ccc(OCc2ccccc2)cc1,93 to 94
